From ChEMBL document CHEMBL1201862, “PubChem BioAssay data set” (2004) come the findings set out here.

Test systems include UO-31; NCI-H226; SK-MEL-28; RXF 393; MOLT-4; HCT-15; 786-0; HOP-92; MDA-MB-231; A498; HCC 2998; EKVX; HCT-116; TK-10; OVCAR-3; A549; NCI-H460; NCI-H23; SK-OV-3; OVCAR-8.
What all share (test): NCI anticancer screen, dose series, 48 h

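Test compounds were applied to cells in 96-well plates for 48 hours at 5 doses. GI50 is the concentration that inhibits growth by half.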 Calls of active or inactive are those of the source. Cut-off read from the data, not from the text of the source: active = GI50 up to about 1.1 µM and inactive = higher.

`O=c1[nH]c2ccccc2c(=O)c2cc3ccccc3cc12`: the GI50 in the assay on UO-31 is 35.3 µM (inactive); with NCI-H226, 16.7 µM (inactive); in the assay with SK-MEL-28 it was 67 µM (inactive); in the assay on RXF 393, 18 µM (inactive); in the assay on MOLT-4 it was 92.9 µM (inactive); in the assay with HCT-15, 74.8 µM. Further, the GI50 was 6.58 µM (inactive) with 786-0; 3.9 µM (inactive) in the assay with HOP-92; 6.35 µM (inactive) in the assay with MDA-MB-231; 17.2 µM (inactive) in the assay with A498; > 100 µM (inactive) in the assay on HCC 2998; > 100 µM (inactive) in the assay with EKVX. Besides, the GI50 with HCT-116 is 5.78 µM (inactive); with TK-10 it was 15.7 µM (inactive); in the assay with OVCAR-3, 22.7 µM (inactive); with A549, 31.3 µM (inactive); in the assay on NCI-H460, 16.4 µM (inactive); in the assay with NCI-H23 it was 19.1 µM (inactive). Further, the results for the GI50 in the assay with SK-OV-3 and in the assay with OVCAR-8 were 11.8 µM (inactive) and 10 µM (inactive), respectively.
Take `Cc1ncc(COP(=O)(O)O)c(/C=C2\SC(=S)NC2=O)c1O`: the GI50 in the assay on UO-31 was > 100 µM (inactive); in the assay with NCI-H226, > 100 µM (inactive); in the assay on SK-MEL-28, > 100 µM (inactive); in the assay on RXF 393, > 100 µM (inactive); with MOLT-4, > 100 µM (inactive); in the assay on HCT-15 it was over 100 µM. Further, the GI50 was > 100 µM (inactive) in the assay on 786-0; > 74.5 µM (inactive) in the assay on HOP-92; > 100 µM (inactive) with MDA-MB-231; > 100 µM (inactive) in the assay on A498; > 100 µM (inactive) with HCC 2998; > 100 µM (inactive) with EKVX. Also, the GI50 in the assay with HCT-116, in the assay on TK-10, in the assay with OVCAR-3, in the assay with A549, in the assay with NCI-H460 and in the assay with NCI-H23 was > 100 µM (inactive) each time. The GI50 in the assay on SK-OV-3 and in the assay on OVCAR-8 was > 100 µM (inactive) in each case.
As to `Cc1c(C(C)C)cc(OCCO)cc1C(C)C`, the GI50 with UO-31 is 67.1 µM (inactive); in the assay with NCI-H226 it was 34.8 µM (inactive); in the assay with SK-MEL-28 it was 87.9 µM (inactive); in the assay on RXF 393 it was 16.6 µM (inactive); in the assay with MOLT-4 it was 34.1 µM (inactive); in the assay with HCT-15, 35.6 µM. The GI50 in the assay with 786-0 is 24.4 µM (inactive); in the assay on HOP-92, 19.8 µM (inactive); in the assay with MDA-MB-231, 32.9 µM (inactive); in the assay on A498, 31.3 µM (inactive); in the assay with HCC 2998, 55.6 µM (inactive); with EKVX it was 31 µM (inactive). In addition, the GI50 is 31.3 µM (inactive) in the assay with HCT-116; > 100 µM (inactive) in the assay with TK-10; 47.5 µM (inactive) in the assay on OVCAR-3; 38.3 µM (inactive) with A549; 36.4 µM (inactive) in the assay with NCI-H460; 42.3 µM (inactive) with NCI-H23. The GI50 in the assay with SK-OV-3 was > 100 µM (inactive); in the assay on OVCAR-8 it was 42.3 µM (inactive).
Take `O=C1N2CCC[C@H]2CS1(=O)=O`: the GI50 in the assay with UO-31 is 14.5 µM (inactive); in the assay on NCI-H226 it was 25.4 µM (inactive); with SK-MEL-28, 18.4 µM (inactive); in the assay on RXF 393, 7.36 µM (inactive); in the assay on MOLT-4, 3.34 µM (inactive); in the assay on HCT-15, 12.6 µM. Also, the GI50 with 786-0 is 11.1 µM (inactive); with HOP-92, 10.9 µM (inactive); in the assay on MDA-MB-231, 15.4 µM (inactive); in the assay on A498, 20.4 µM (inactive); with HCC 2998 it was 17.3 µM (inactive); with EKVX, 22 µM (inactive). Besides, the GI50 in the assay on HCT-116 is 12.7 µM (inactive); with TK-10, 18.2 µM (inactive); with OVCAR-3 it was 15.8 µM (inactive); in the assay on A549 it was 22.8 µM (inactive); in the assay with NCI-H460 it was 32.7 µM (inactive); in the assay with NCI-H23, 15.8 µM (inactive). Besides, the GI50 is 36.6 µM (inactive) with SK-OV-3 and 13.6 µM (inactive) in the assay with OVCAR-8.
`O=[N+]([O-])c1cccc(/N=C2\c3ccccc3CN2c2cccc([N+](=O)[O-])c2)c1`: the GI50 in the assay with UO-31 was > 100 µM (inactive); with NCI-H226, > 100 µM (inactive); in the assay on SK-MEL-28 it was > 100 µM (inactive); in the assay with RXF 393 it was 31.9 µM (inactive); in the assay with MOLT-4, > 100 µM (inactive); in the assay with HCT-15, over 100 µM. For the same molecule, the GI50 with 786-0 is 50.7 µM (inactive); in the assay on HOP-92, 19.4 µM (inactive); with MDA-MB-231, > 100 µM (inactive); in the assay on A498, > 100 µM (inactive); in the assay on HCC 2998, > 100 µM (inactive); in the assay with EKVX, > 100 µM (inactive). Besides, the GI50 in the assay with HCT-116 was > 100 µM (inactive); in the assay with TK-10 it was > 100 µM (inactive); with OVCAR-3, 65 µM (inactive); in the assay with A549, > 100 µM (inactive); in the assay with NCI-H460, > 100 µM (inactive); in the assay with NCI-H23, > 100 µM (inactive). Besides, the GI50 in the assay on SK-OV-3 and in the assay on OVCAR-8 was > 100 µM (inactive) throughout.
As for `CC(=O)SC(C[N+](=O)[O-])c1ccc2c(c1)OCO2` (stereo not given), the GI50 in the assay on UO-31 is 5.46 µM (inactive); with NCI-H226, 18.7 µM (inactive); in the assay with SK-MEL-28, 3.15 µM (inactive); with RXF 393, 1.9 µM (inactive); in the assay with MOLT-4 it was 2.98 µM (inactive); with HCT-15, 3.32 µM. Besides, the GI50 in the assay on 786-0 was 3.64 µM (inactive); in the assay on HOP-92, 12 µM (inactive); in the assay on MDA-MB-231, 7.45 µM (inactive); with A498, 3.02 µM (inactive); in the assay with HCC 2998, 1.73 µM (inactive); in the assay on EKVX, 21.4 µM (inactive). The GI50 is 2.31 µM (inactive) in the assay with HCT-116; 14.4 µM (inactive) in the assay with TK-10; 8.24 µM (inactive) with OVCAR-3; 14.2 µM (inactive) in the assay with A549; 11.2 µM (inactive) in the assay with NCI-H460; 5.89 µM (inactive) in the assay with NCI-H23. Further, the GI50 in the assay on SK-OV-3 is 7.24 µM (inactive); in the assay with OVCAR-8 it was 13.6 µM (inactive).
With `C#CCn1ncc2c(SC)ncnc21`, the GI50 in the assay on UO-31 was > 100 µM (inactive); in the assay with NCI-H226, > 100 µM (inactive); with SK-MEL-28, > 100 µM (inactive); in the assay with RXF 393 it was > 100 µM (inactive); with MOLT-4 it was > 100 µM (inactive); with HCT-15 it was over 100 µM. The GI50 was > 100 µM (inactive) in the assay with 786-0; > 100 µM (inactive) with HOP-92; > 100 µM (inactive) in the assay with MDA-MB-231; > 100 µM (inactive) in the assay with A498; > 100 µM (inactive) in the assay with HCC 2998; 66.4 µM (inactive) in the assay with EKVX. For the same molecule, the GI50 in the assay on HCT-116, in the assay on TK-10, with OVCAR-3, in the assay on A549, in the assay with NCI-H460 and in the assay on NCI-H23 was > 100 µM (inactive) each time. Moreover, the GI50 in the assay on SK-OV-3 and in the assay with OVCAR-8 was > 100 µM (inactive) each time.
As for `Cc1cc2c(c3c1c1ccccc1n3C)C(=O)C=CC2=O`, the GI50 in the assay with UO-31 was 16.1 µM (inactive); in the assay on NCI-H226, 40.3 µM (inactive); in the assay with SK-MEL-28, 19.9 µM (inactive); in the assay with RXF 393, 15.3 µM (inactive); in the assay with MOLT-4, 2 µM (inactive); with HCT-15, 13.7 µM. For the same molecule, the GI50 was 5.6 µM (inactive) in the assay with 786-0; 12.9 µM (inactive) in the assay on HOP-92; 25.7 µM (inactive) with MDA-MB-231; 47.5 µM (inactive) with A498; 33 µM (inactive) in the assay with HCC 2998; > 75.5 µM (inactive) in the assay on EKVX. Also, the GI50 is 18.8 µM (inactive) in the assay with HCT-116; 24.2 µM (inactive) in the assay on TK-10; 11.5 µM (inactive) in the assay with OVCAR-3; 44.6 µM (inactive) with A549; 33.9 µM (inactive) in the assay with NCI-H460; 10.7 µM (inactive) in the assay with NCI-H23. In addition, the GI50 in the assay with SK-OV-3 is 55.5 µM (inactive); in the assay on OVCAR-8, 22.9 µM (inactive).
Turning to `N#CC(NNC(=O)Cc1ccccc1)c1c(O)ccc2ccccc12` (stereo not given), the GI50 in the assay on UO-31 is 2.84 µM (inactive); in the assay with NCI-H226, 18.4 µM (inactive); in the assay on SK-MEL-28 it was 7.66 µM (inactive); with RXF 393 it was 7 µM (inactive); in the assay on MOLT-4, 2.23 µM (inactive); with HCT-15 it was 2.7 µM. In addition, the GI50 with 786-0 was 4.6 µM (inactive); in the assay on HOP-92, 5 µM (inactive); in the assay on MDA-MB-231, 4.19 µM (inactive); with A498, 30.3 µM (inactive); in the assay on HCC 2998 it was 14.3 µM (inactive); with EKVX, 5.56 µM (inactive). In addition, the GI50 with HCT-116 was 3.46 µM (inactive); with TK-10, 20.3 µM (inactive); in the assay on OVCAR-3, 2.99 µM (inactive); with A549, 5.51 µM (inactive); in the assay with NCI-H460 it was 4.25 µM (inactive); in the assay on NCI-H23, 4.89 µM (inactive). In addition, the GI50 was 4.84 µM (inactive) in the assay with SK-OV-3 and 4.17 µM (inactive) in the assay on OVCAR-8.
`O=C(Cc1ccccc1)NN1C(=O)/C(=C\c2cccc([N+](=O)[O-])c2)S/C1=N\c1ccccc1`: the GI50 in the assay with UO-31 was > 100 µM (inactive); in the assay with NCI-H226, > 100 µM (inactive); with SK-MEL-28, > 100 µM (inactive); in the assay on RXF 393, > 100 µM (inactive); in the assay with MOLT-4, 42.5 µM (inactive); in the assay with HCT-15, over 100 µM. Also, the GI50 in the assay with 786-0 is > 100 µM (inactive); in the assay with HOP-92, 44 µM (inactive); in the assay with MDA-MB-231, > 100 µM (inactive); in the assay with A498, > 100 µM (inactive); in the assay on HCC 2998 it was > 100 µM (inactive); in the assay on EKVX, > 100 µM (inactive). The GI50 in the assay with HCT-116, with TK-10, with OVCAR-3, with A549, in the assay with NCI-H460 and in the assay on NCI-H23 was > 100 µM (inactive) throughout. In addition, the GI50 in the assay on SK-OV-3 and in the assay on OVCAR-8 was > 100 µM (inactive) throughout.
